Experiment [1] deals with T1, receptor 5-HT4(a) (Homo sapiens, UniProt Q13639).
T1 construct: The entire coding region of the cDNAs of 5-HT4(a), 5-HT4(b), 5-HT4(c) and 5-T4(d) was subcloned; expressed in transfected cells; host or cells: COS-7 cells, transient, pRC/CMV vector
Briefly: cAMP formation in transiently transfected COS-7 cells. The class given is cell-based. The settings on record: COS-7, 1 μM agonist, 15 minutes. The protocol:
(§1) The entire coding region of the cDNAs of 5-HT4(a), 5-HT4(b), 5-HT4(c) and 5-T4(d) was subcloned into a mammalian expression vector pRC/CMV (Invitrogen, Carlsbad, Calif.). The transfections were carried out using polyethyleneimine (PEI) as described in Boussif et al. (1995). The cells were transfected using a mixture of DNA and of PEI in a ratio of 20 μmol of PEI/mg of DNA in 0.9% NaCl. For the radioligand binding assays, the COS-7 cells were seeded into culture flasks of 1.5×10^4 mm^2 one day before the transfection, at a density of 1×10^7 cells/flask, incubated for six hours with plasmid DNA (150 μg/flask) and collected 48 hours after transfection. For the measurement of cAMP formation, the COS-7 cells were seeded onto twelve-well plates one day before transfection, at a density of 5×10^5 cells/well, incubated for six hours with plasmid DNA (4 to 8 μg/well according to the experiments) and assayed 24 hours after the transfection. The cells transfected with the receptor 5-HT4 cDNA constructs were compared with the “blank”-transfected cells, which were exposed to the unmodified pRC/CMV plasmid.
(§2) To measure intracellular cAMP accumulation, the transiently transfected COS-7 cells were incubated, 24 hours after transfection, in Dulbecco's modified Eagle medium (DMEM) containing 5 mM theophylline, 10 mM HEPES and 10 μM pargyline for 15 minutes at 37° C., in the presence of 5% CO2. […] The reaction was stopped by aspiration of the medium and addition of 500 μl of ice-cold ethanol. After one hour at room temperature, the cells were scraped, and everything was collected and freeze-dried. The pellet was resuspended in 350 μl of PBS and centrifuged for 5 min at 300 g. The cAMP was quantified in the supernatant using a radioimmunological assay (E.R.I.A. assay kit from Pasteur Diagnostics 79830). Student's t tests were carried out using the program Quick TEst.

The subject of experiment [2] is “blank”-transfected COS-7 cells. Briefly: cAMP formation in control COS-7 cells. The class given is cell-based. To be noted: 1 μM. The method, then:
as §1, §2
Background: Changes in cAMP serve as a functional read-out for many G protein-coupled receptors.

The target of experiment [3] is T1, receptor 5-HT4(a). Briefly: [3H]GR113808 radioligand binding, membranes of transiently transfected COS-7 cells. The protocol:
as §1
(§3) Each flask of cells intended for the radioligand binding assays was washed twice with a phosphate buffer (PBS). The cells were then scraped, collected and centrifuged at 300 g for five minutes. The pellet was resuspended in 2.5 ml of ice-cold HEPES buffer (50 mM, pH 7.4) and homogenized with an Ultraturax tissue grinder. The lysate was then centrifuged at 40,000 g for 20 minutes at 4° C. The resulting pellet was resuspended in 15 volumes of HEPES buffer (50 mM, pH 7.4). The membrane preparations were maintained in ice and used within two hours for radioligand binding assays. The protein concentrations were determined by the method of Lowry et al., 1951, using bovine serum albumin as standard.
(§4) The saturation studies were performed using [^3H] GR113808 at 9 different concentrations ranging from 0.01 to 3.5 nM. The tubes were incubated at 25° C. for 30 minutes. The reaction-was stopped by rapid filtration, under vacuum, through Whatman GF/B filter paper using the Brandel 48R cell harvester. The filters were presoaked in a solution of PEI (0.1%) to reduce the binding to the filters. The filters were then washed with an ice-cold buffer (50 mM Tris-HCl, pH 7.4) and placed in 4 ml of “ready safe” scintillation cocktail (Beckman, Fullerton, Calif.) overnight. The radioactivity was measured using a Beckman LS 6500 C liquid scintillation counter. The binding data were analysed by computer-assisted nonlinear regression analysis (Graph Pad Prism Program, Graph Pad Software, Inc., San Diego, Calif.).
(§5) The experiments correspond to the competition of various compounds for [^3H]GR113808 binding to membranes of transiently transfected COS-7 cells. […] The estimations of affinity are given as Ki values in nM, and are determined from IC50 values obtained by computer-assisted nonlinear curve analysis (GraphPad, Prism Software). The Ki values are representative of at least two determinations.

Another experiment deals with T2, receptor 5-HT4(b) (Homo sapiens, UniProt Q13639).
T2 construct: The entire coding region of the cDNAs of 5-HT4(a), 5-HT4(b), 5-HT4(c) and 5-T4(d) was subcloned; expressed in transfected cells; host or cells: COS-7 cells, transient, pRC/CMV vector; cDNA amplified from human brain and ileum RNA
T2 sequence (Q13639 whole entry): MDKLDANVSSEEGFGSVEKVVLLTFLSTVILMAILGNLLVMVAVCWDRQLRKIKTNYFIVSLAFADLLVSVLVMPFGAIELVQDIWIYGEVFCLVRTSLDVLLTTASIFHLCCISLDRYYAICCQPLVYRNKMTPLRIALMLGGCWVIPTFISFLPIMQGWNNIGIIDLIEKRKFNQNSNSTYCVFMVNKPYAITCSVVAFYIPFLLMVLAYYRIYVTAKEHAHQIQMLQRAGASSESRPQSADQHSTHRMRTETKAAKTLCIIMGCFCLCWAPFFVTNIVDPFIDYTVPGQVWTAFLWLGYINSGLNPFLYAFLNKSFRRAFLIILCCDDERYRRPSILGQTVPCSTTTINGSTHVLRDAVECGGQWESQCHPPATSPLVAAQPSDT
The description is as above. The protocol:
as §1, §3, §4, §5

Experiment [4] has as its target T3, receptor 5-HT4(c) (Homo sapiens, UniProt Q13639). The description is as above. Also on record: The entire coding region of the cDNAs of 5-HT4(a), 5-HT4(b), 5-HT4(c) and 5-T4(d) was subcloned; expressed in transfected cells; host or cells: COS-7 cells, transient, pRC/CMV vector; cDNA amplified from human brain and ileum RNA. The method, then: as §1, §3, §4, §5

The target in experiment [5] is T4, receptor 5-HT4(d) (Homo sapiens, UniProt Q13639). The description is as above. Also on record: The entire coding region of the cDNAs of 5-HT4(a), 5-HT4(b), 5-HT4(c) and 5-T4(d) was subcloned; expressed in transfected cells; host or cells: COS-7 cells, transient, pRC/CMV vector; cDNA amplified from human brain and ileum RNA. The protocol:
as §1, §3, §4, §5

For experiment [6], the system named is cells expressing the isoforms of the receptor 5-HT4. Briefly: cAMP formation in transiently transfected COS-7 cells, statement for all isoforms together. The class given is cell-based, human. The method, then:
The entire coding region of the cDNAs of 5-HT4(a), 5-HT4(b), 5-HT4(c) and 5-T4(d) was subcloned into a mammalian expression vector pRC/CMV (Invitrogen, Carlsbad, Calif.). The transfections were carried out using polyethyleneimine (PEI) as described in Boussif et al. (1995). The cells were transfected using a mixture of DNA and of PEI in a ratio of 20 μmol of PEI/mg of DNA in 0.9% NaCl. […] The cells transfected with the receptor 5-HT4 cDNA constructs were compared with the “blank”-transfected cells, which were exposed to the unmodified pRC/CMV plasmid. […] The reaction was stopped by aspiration of the medium and addition of 500 μl of ice-cold ethanol. After one hour at room temperature, the cells were scraped, and everything was collected and freeze-dried. The pellet was resuspended in 350 μl of PBS and centrifuged for 5 min at 300 g. The cAMP was quantified in the supernatant using a radioimmunological assay (E.R.I.A. assay kit from Pasteur Diagnostics 79830). Student's t tests were carried out using the program Quick TEst.

Experiment [7] deals with T3, receptor 5-HT4(c). Briefly: [3H]GR113808 saturation binding, membranes of stably transfected CHO cells. Also on record: The entire coding region of the cDNAs of 5-HT4(a), 5-HT4(b), 5-HT4(c) and 5-T4(d) was subcloned; expressed in transfected cells; pRC/CMV vector; cDNA amplified from human brain and ileum RNA. To be noted: 30 minutes at 25° C., read-out: Kd, saturation analysis. The method, then: (§6) The entire coding region of the 5-HT4(c) and 5-HT4(d) cDNAs was subcloned into a mammalian expression vector pRC/CMV (Invitrogen, Carlsbad, Calif.). The CHO cells are stably transfected by electroporation (250 V, 960 μF) with the plasmid PRc/CMV, containing the clone h5-HT4(c) or h5-HT4(d), cleaved with the restriction enzyme Kpn1 (10 μg of plasmid for 10^7 cells). The cells are cultured in HAM-F12 medium supplemented with 10% of heat-inactivated foetal calf serum. […] Twelve days later, the clones are individualized and cultured in 12-well plates. Clone selection is carried out by studying the stimulation of the cAMP formed in the presence of 1 μM serotonin. […]
(§7) Each flask of cells intended for the radioligand binding assays was washed twice with a phosphate buffer (PBS). […] The protein concentrations were determined by the method of Lowry et al., 1951, using bovine serum albumin as standard.
(§8) The radioligand binding studies were carried out in 500 μl of buffer (50 mM HEPES, pH 7.4) [lacuna] […] The filters were then washed with an ice-cold buffer (50 mM Tris-HCl, pH 7.4) and placed in 4 ml of “ready safe” scintillation cocktail (Beckman, Fullerton, Calif.) overnight. The radioactivity was measured using a Beckman LS 6500 C liquid scintillation counter. […]

Experiment [8] concerns the target T4, receptor 5-HT4(d). Described as above. The settings on record: 30 minutes at 25° C., read-out: Kd, saturation analysis. Also noted: The entire coding region of the cDNAs of 5-HT4(a), 5-HT4(b), 5-HT4(c) and 5-T4(d) was subcloned; expressed in transfected cells; pRC/CMV vector; cDNA amplified from human brain and ileum RNA. The protocol:
as §6, §7, §8

Setting [9] is: 5-HT4(a), COS-7 membranes, [3H]GR113808 at 50% of Kd, read-out: Ki, competition for [3H]GR113808 binding.
The mark [10] stands for this setting: 5-HT4(b), COS-7 membranes, [3H]GR113808 at 50% of Kd, read-out: Ki, competition for [3H]GR113808 binding.
The mark [11] stands for this setting: 5-HT4(c), COS-7 membranes, [3H]GR113808 at 50% of Kd, read-out: Ki, competition for [3H]GR113808 binding.
Setting [12] is: 5-HT4(d), COS-7 membranes, [3H]GR113808 at 50% of Kd, read-out: Ki, competition for [3H]GR113808 binding.
Setting [13] is: read-out: Ki, competition for [3H]GR113808 binding.

Where a name gives a salt, the structure may show the parent alone. Read-outs that look alike come from different tables or passages of the source.

T4 sequence (Q13639 1-360 isoform Q13639-3): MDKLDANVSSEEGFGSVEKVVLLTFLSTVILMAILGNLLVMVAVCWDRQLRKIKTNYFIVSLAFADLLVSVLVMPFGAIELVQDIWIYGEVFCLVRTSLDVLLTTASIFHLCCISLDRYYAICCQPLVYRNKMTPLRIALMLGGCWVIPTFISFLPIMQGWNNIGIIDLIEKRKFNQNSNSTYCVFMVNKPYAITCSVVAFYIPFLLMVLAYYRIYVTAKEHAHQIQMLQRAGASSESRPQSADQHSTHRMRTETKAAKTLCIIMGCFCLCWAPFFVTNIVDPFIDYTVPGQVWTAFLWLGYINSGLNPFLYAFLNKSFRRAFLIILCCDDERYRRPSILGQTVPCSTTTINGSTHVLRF
T3 sequence (Q13639 1-380 isoform Q13639-4): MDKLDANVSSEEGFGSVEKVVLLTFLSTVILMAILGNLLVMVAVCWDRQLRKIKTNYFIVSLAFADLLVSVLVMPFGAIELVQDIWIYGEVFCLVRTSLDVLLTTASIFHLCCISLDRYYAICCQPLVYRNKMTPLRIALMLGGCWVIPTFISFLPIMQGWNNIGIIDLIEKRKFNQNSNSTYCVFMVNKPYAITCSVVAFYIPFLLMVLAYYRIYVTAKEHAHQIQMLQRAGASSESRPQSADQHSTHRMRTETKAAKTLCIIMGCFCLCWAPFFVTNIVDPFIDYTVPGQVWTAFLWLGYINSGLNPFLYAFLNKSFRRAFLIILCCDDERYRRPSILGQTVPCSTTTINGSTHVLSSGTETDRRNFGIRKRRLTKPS
T1 sequence (Q13639 1-387 isoform Q13639-2): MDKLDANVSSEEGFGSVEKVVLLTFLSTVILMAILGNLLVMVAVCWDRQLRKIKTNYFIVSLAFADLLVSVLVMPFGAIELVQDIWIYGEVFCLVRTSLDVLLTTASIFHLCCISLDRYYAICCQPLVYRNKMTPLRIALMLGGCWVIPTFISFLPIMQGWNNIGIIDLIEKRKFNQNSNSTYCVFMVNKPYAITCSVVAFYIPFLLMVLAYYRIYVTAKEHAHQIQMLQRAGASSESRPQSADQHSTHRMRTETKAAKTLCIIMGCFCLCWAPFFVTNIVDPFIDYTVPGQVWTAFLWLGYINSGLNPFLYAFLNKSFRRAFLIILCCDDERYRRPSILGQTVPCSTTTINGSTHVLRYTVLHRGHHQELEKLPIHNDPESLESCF

Regarding `COc1cc(N)c(Cl)cc1C(=O)NC1CCN2CCCC1C2` (single isomer, unassigned; (+)) [Renzapride, (+)endo-4-amino-5-chloro-2-methoxy-N-(1-azabicyclo[3.3.1]non-4-yl)benzamide, hydrochloride], the “increase in cAMP concentration” value on receptor 5-HT4(a) [1] was 56%. Further, the “effect on basal adenylate cyclase activity / basal cAMP levels” value in experiment [2] is “no significant effect”.
The term Ki denotes a measure of affinity in units of concentration, obtained from inhibition or displacement. With `COc1ccc2[nH]cc(CCN)c2c1` [5-MeOT, 5-methoxytryptamine], the Ki amounted to 2080 ± 508 nM at receptor 5-HT4(a) [3] (setting [9]), 2440 ± 510 nM at receptor 5-HT4(b) (setting [10]), 1020 ± 236 nM at receptor 5-HT4(c) [4] (setting [11]) and 553 ± 149 nM on receptor 5-HT4(d) [5] (setting [12]).
Consider `CCn1c(=O)n(C(=O)N[C@H]2C[C@H]3CC[C@@H](C2)N3C)c2ccccc21` [BIMU1], for which the Ki is 373 ± 119 nM at receptor 5-HT4(a) [3], 123 ± 9 nM at receptor 5-HT4(b), 66 ± 8.37 nM on receptor 5-HT4(c) [4] and 38.8 ± 12 nM on receptor 5-HT4(d) [5].
As to `Cn1cc(C(=O)OCC2CCN(CCNS(C)(=O)=O)CC2)c2ccccc21` [GR113808, ([1-[2-(methylsulphonyl)amino]ethyl]-4-piperidyl)methyl 1-methyl-1H-indole-3-carboxylate], the Ki amounted to 0.33 ± 0.033 nM on receptor 5-HT4(a) [3] (setting [9]), 0.53 ± 0.1 nM on receptor 5-HT4(b) (setting [10]), 0.41 ± 0.13 nM on receptor 5-HT4(c) [4] (setting [11]) and 0.078 nM on receptor 5-HT4(d) [5] (setting [12]).
`COc1cc(N)c(Cl)cc1C(=O)OCCN1CCCCC1` [ML10302, 2-(1-piperidyl)ethyl 4-amino-5-chloro-2-methoxy-benzoate]: the “effect on basal adenylate cyclase activity / basal cAMP levels” value in experiment [2] is “no significant effect”. Moreover, the “stimulatory effect on cAMP as % of the stimulatory effect of 5-HT” value in [6] (1 μM, COS-7 cells expressing the isoforms of the receptor 5-HT4) lay within 28 to 34%. Also, the “antagonism of the capacity of 5-HT (1 μM) to increase basal cAMP levels” value in [6] (preincubation with 1 μM prior to 5-HT, COS-7 cells expressing the isoforms) is on record as “significantly antagonizes”.
Take `COc1cc(N)c(Cl)cc1C(=O)NC1CN2CCC1CC2` (stereo not drawn) [Zacopride, 4-amino-5-chloro-2-methoxy-N-(1-azabicyclo-[2,2,2]octo-3-yl)benzamide, hydrochloride]: the Ki at receptor 5-HT4(a) [3] (setting [9]) stood at 7750 ± 1620 nM; at receptor 5-HT4(b) (setting [13]) it was 11500 ± 950 nM; on receptor 5-HT4(c) [4] (setting [13]) it was 10600 ± 2160 nM; on receptor 5-HT4(d) [5] (setting [12]) it was 3600 ± 1840 nM.
Consider `Cn1cc(C(=O)OCC2CCN(CCNS(C)(=O)=O)CC2)c2ccccc21` [[^3H]GR113808], for which the Kd came out at 0.23 ± 0.06 nM at receptor 5-HT4(a) [3] (5-HT4(a), COS-7 membranes, 30 minutes at 25° C., read-out: Kd, saturation analysis); 0.62 ± 0.05 nM at receptor 5-HT4(b) (5-HT4(b), COS-7 membranes, 30 minutes at 25° C., read-out: Kd, saturation analysis); 0.42 ± 0.04 nM at receptor 5-HT4(c) [7]; 0.23 ± 0.03 nM at receptor 5-HT4(d) [8]; 0.3 ± 0.08 nM on receptor 5-HT4(c) [4] (5-HT4(c), COS-7 membranes, 30 minutes at 25° C., read-out: Kd, saturation analysis); 0.14 ± 0.05 nM on receptor 5-HT4(d) [5] (5-HT4(d), COS-7 membranes, 30 minutes at 25° C., read-out: Kd, saturation analysis).

Values taken from patent publication US6506580B1, “Splice variants for human 5-HT4 serotonin receptor and their applications, in particular for screening” (Institut National de la Sante et de la Recherche Medicale …, priority 1997, dated 2003).
